Data published in patent US20250059156A1, “THERAPEUTIC ALKALOID COMPOUNDS” (Sensorium Therapeutics, Inc., priority 2022, published 2025).

Key:
[1] = in vivo; cited from earlier work
C57/Bl6 mice = test: Behavioral evaluation assay (SmartCube test); format: in vivo; details: FIG. 1
Procedure: The CNS-like activity of test compounds after acute intraperitoneal administration was evaluated in naïve C57/Bl6 mice using the SmartCube® test.
Male C57/Bl6 mice from Taconic Laboratories (Germantown, NY) were used. Upon receipt, mice were group-housed in Optimice® ventilated cages with 4 mice per cage. Mice were acclimated to the colony room for at least one week prior to test, and subsequently tested at approximately 8-9 weeks of age. All animals were examined, handled, and weighed prior to initiation of the study to assure adequate health and suitability and to minimize nonspecific stress associated with manipulation. During the course of the study, 12/12 light/dark cycles were maintained. The room temperature was 20-23° C. with a relative humidity maintained between 30-70%. Chow and water were provided ad libitum for the duration of the study.
Test compounds were formulated in 5% Pharmasolve, 30% P3 (1:1:1 PEG200, PEG400, propylene glycol) and 65% saline. […]
For class and subclass analysis, a reference dataset has been built from hundreds of drug doses in multiple drug classes plus a control group. […] Multiple analyses of the data was performed to quantitatively produce independent predictions of drug class, and drug subclass. The behavioral signatures of the test drug were evaluated using these classifiers to predict potential therapeutic utility.

SERT = SERT (Homo sapiens (Human), UniProt P31645); test: SERT inhibition assay (Neurotransmitter Transporter Fluorescence assay); format: cell-based; details: class symbols; legend in nM/micromolar
Procedure: SERT inhibition was measured using a Neruotransmitter Transportation Fluorescence assay. Briefly, stable 5HHH cells were prepared in a 384 microwell plate. Compounds were prepared by in assay buffer (20 mM HEPES, 0.1% BSA). The compounds were added to the plated cells and incubated for 30 minutes at 37° C. 25 μL of dye solution (Molecular Devices Neurotransmitter Transporter Uptake Assay Kit) was added per well and incubated for 30 minutes at 37° C. The plates were then read on a plate reader.

PDE4C1 = PDE4C1 (Homo sapiens (Human), UniProt Q08493); test: PDE4 percent inhibition assay; format: biochemical; details: for inhibition at 10 µM: read-out: PDE4 Isoform % Inhibition @ 10 μM PDE4C1
Procedure: (§1) PDE4 assay kit (BPS Bioscience, San Diego, CA), as described below.
(§2) • 1) Dilute 20 μM FAM-Cyclic-3′, 5′-AMP stock 100-fold with PDE buffer to make a 200 nM solution. Make only sufficient quantity needed for the assay; store remaining 20 μM stock solution in aliquots at −20° C. • 2) Add 25 μl of FAM-Cyclic-3′,5′-AMP (200 nM) to each well designated “Positive Control”, “Test Inhibitor”, and “Substrate Control”. • 3) Add 20 μl of PDE assay buffer to each well designated “Substrate Control” and 45 μl of PDE assay buffer to each well designated “Blank”. • 4) Add 5 μl of inhibitor solution to each well designated “Test Inhibitor”. For the wells labeled “Positive Control”, “Substrate Control” and “Blank”, add 5 μl of the same solution without inhibitor (inhibitor buffer). • 5) Thaw PDE on ice. Upon first thaw, briefly spin tube containing enzyme to recover the full contents of the tube. • 6) Dilute PDE4 in PDE buffer to 7.5 pg/μl (0.15 ng/reaction)*. Initiate reaction by adding 20 μl of PDE4 (7.5 pg/μl) to the wells designated “Positive Control” and “Test Inhibitor.” • 7) Incubate at room temperature for 1 hour.
(§3) • 1) Mix binding agent thoroughly and dilute binding agent 1:100 with binding agent diluent. • 2) Add 100 μl diluted binding agent to each microwell. Incubate at room temperature for 1 hour with slow shaking. • 3) Read the fluorescent polarization of the sample in a microtiter-plate reader equipped for the measurement of fluorescence polarization, capable of excitation at wavelengths ranging from 485±5 nm and detection of emitted light ranging from 528±10 nm. Blank value is subtracted from all other values.
(§4) 100 µM dilutions of the test compounds were prepared in assay buffer (10% DMSO concentration) and 5 μl of the dilution was added to a 50 μl reaction so that the final concentration of DMSO is 1% in all of reactions.
(§5) The enzymatic reactions were conducted at room temperature for 60 minutes in a 50 μl mixture containing PDE assay buffer, 100 nM FAM-cAMP, a PDE enzyme and the test compound.
(§6) After the enzymatic reaction, 100 Is of a binding solution (1:100 dilution of the binding agent with the binding agent diluent) was added to each reaction and the reaction was performed at room temperature for 60 minutes.
(§7) Fluorescence intensity was measured at an excitation of 485 nm and an emission of 528 nm using a Tecan Infinite M1000 microplate reader.

PDE4A1A = PDE4A1A (Homo sapiens (Human), UniProt P27815); test: PDE4 percent inhibition assay; format: biochemical; details: for inhibition at 10 µM: read-out: PDE4 Isoform % Inhibition @ 10 μM PDE4A1A
Procedure: as §1, §2, §3, §4, §5, §6, §7

PDE4B2 = PDE4B2 (Homo sapiens (Human), UniProt Q07343); test: PDE4 percent inhibition assay; format: biochemical; details: for inhibition at 10 µM: read-out: PDE4 Isoform % Inhibition @ 10 μM PDE4B2
Procedure: as §1, §2, §3, §4, §5, §6, §7

PDE4D2 = PDE4D2 (Homo sapiens (Human), UniProt Q08499); test: PDE4 percent inhibition assay; format: biochemical; details: for inhibition at 10 µM: read-out: PDE4 Isoform % Inhibition @ 10 μM PDE4D2
Procedure: as §1, §2, §3, §4, §5, §6, §7

PDE4D2, sequence (Q08499 303-809, change not shown): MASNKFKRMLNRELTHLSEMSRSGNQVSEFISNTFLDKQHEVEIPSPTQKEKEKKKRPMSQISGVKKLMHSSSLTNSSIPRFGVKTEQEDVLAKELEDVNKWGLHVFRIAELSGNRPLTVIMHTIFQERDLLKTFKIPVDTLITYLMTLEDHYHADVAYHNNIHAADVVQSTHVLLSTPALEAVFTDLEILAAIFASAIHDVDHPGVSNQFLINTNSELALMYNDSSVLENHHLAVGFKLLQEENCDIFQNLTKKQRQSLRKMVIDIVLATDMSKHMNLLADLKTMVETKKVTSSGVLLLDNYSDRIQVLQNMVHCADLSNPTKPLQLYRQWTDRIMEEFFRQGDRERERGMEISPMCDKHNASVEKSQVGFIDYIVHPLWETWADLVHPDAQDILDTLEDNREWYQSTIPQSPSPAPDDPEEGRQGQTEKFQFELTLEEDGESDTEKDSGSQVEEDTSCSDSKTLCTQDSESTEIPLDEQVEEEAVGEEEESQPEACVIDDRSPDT
SERT, sequence (P31645 whole entry, species assumed): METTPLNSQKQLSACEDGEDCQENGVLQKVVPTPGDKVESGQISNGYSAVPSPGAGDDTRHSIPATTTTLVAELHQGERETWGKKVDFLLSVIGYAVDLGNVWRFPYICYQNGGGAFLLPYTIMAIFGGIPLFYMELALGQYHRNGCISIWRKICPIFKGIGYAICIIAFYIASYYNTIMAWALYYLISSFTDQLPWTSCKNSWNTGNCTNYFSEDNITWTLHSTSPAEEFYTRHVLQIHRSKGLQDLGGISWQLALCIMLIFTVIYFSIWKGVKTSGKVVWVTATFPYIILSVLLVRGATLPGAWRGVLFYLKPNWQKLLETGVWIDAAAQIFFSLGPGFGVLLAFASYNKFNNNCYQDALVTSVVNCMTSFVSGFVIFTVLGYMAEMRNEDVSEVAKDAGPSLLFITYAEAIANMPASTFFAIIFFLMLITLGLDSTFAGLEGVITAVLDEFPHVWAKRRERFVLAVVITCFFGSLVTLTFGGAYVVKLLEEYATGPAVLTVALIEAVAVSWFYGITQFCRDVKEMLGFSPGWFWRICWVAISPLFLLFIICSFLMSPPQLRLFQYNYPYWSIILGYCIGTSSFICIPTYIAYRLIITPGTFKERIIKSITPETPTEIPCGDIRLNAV
PDE4B2, sequence (Q07343 other isoform, or with tags, fused parts or gaps): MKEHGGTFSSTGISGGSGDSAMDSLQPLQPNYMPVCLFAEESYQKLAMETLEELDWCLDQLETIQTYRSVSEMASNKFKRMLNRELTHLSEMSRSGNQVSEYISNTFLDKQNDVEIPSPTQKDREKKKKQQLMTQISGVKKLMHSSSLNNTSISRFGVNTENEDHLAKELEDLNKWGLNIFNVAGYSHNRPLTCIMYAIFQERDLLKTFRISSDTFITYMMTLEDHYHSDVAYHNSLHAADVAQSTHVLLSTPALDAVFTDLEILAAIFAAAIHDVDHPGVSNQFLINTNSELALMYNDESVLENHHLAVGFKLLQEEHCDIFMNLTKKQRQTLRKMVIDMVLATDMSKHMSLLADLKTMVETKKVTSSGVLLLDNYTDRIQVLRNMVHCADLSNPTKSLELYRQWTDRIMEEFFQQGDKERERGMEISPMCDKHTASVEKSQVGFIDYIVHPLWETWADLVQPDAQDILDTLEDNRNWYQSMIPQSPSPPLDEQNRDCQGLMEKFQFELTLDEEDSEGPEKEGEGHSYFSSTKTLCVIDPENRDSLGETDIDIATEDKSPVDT
PDE4C1, sequence (Q08493 whole entry, canonical isoform): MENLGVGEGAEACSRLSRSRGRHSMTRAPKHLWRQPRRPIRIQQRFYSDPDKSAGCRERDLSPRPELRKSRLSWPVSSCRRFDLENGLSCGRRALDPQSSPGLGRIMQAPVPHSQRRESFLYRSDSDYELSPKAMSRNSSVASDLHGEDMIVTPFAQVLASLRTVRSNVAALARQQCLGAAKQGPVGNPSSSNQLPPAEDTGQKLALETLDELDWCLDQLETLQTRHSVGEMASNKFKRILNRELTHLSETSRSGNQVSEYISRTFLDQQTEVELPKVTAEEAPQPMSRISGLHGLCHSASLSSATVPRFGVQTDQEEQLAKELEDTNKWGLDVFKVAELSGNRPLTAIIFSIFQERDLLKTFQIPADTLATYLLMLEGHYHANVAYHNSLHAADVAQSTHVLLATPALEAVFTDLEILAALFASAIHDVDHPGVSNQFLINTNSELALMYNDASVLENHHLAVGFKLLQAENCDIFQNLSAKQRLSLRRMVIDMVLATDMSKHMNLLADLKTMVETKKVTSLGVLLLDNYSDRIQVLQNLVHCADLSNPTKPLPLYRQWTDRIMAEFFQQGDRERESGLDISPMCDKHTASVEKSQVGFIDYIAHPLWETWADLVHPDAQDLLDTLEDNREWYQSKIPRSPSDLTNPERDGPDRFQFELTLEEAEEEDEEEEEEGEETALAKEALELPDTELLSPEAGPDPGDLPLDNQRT
PDE4A1A, sequence (P27815 other isoform, or with tags, fused parts or gaps): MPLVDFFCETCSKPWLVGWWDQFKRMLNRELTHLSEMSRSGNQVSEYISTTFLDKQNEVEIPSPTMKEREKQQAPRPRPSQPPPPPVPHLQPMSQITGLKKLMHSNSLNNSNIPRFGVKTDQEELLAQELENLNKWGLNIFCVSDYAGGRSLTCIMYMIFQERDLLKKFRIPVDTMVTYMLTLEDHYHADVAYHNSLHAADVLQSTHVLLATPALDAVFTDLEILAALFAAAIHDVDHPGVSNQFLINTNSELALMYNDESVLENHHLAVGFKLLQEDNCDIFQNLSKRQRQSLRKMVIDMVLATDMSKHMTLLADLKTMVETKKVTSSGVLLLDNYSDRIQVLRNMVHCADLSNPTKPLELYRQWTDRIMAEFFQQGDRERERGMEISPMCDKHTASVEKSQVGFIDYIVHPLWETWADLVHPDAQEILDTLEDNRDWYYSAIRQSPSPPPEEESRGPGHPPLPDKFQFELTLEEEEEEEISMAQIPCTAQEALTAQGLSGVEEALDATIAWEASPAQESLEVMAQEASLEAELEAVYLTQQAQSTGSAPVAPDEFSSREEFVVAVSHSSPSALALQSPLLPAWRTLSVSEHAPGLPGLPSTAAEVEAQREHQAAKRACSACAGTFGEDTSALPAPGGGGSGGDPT

| SMILES | half-life in plasma [1] | behavioral phenotype compared to Compound 001 (C57/Bl6 mice) | IC50 (SERT) [nM] | inhibition at 10 µM (PDE4C1) [%] | inhibition at 10 µM (PDE4A1A) [%] | inhibition at 10 µM (PDE4B2) [%] | inhibition at 10 µM (PDE4D2) [%] | PDE4 Isoform % Inhibition @ 10 μM PDE4C1 (PDE4C1) | PDE4 Isoform % Inhibition @ 10 μM PDE4A1A (PDE4A1A) | PDE4 Isoform % Inhibition @ 10 μM PDE4B2 (PDE4B2) | PDE4 Isoform % Inhibition @ 10 μM PDE4D2 (PDE4D2) |
| --- | --- | --- | --- | --- | --- | --- | --- | --- | --- | --- | --- |
| COc1ccc([C@@]23CCC(=O)C[C@@H]2N(C)CC3)cc1OC [(−) mesembrine] | less than 2 hours |  |  |  |  |  |  |  |  |  |  |
| COc1ccc([C@@]23CC[C@@H](O)C[C@@H]2N(C)CC3)cc1OC [Compound 018, (3aS,6R,7aS)-3a-(3,4-dimethoxyphenyl)-1-methyloctahydro-1H-indol-6-ol] |  | different behavioral phenotype classification |  |  |  |  |  |  |  |  |  |
| COc1ccc([C@@]23CC[C@@H](N4CCCC4)C[C@@H]2N(C)CC3)cc1OC [Compound 105, (3aS,6R,7aS)-3a-(3,4-dimethoxyphenyl)-1-methyl-6-(pyrrolidin-1-yl)octahydro-1H-indole] |  |  | 100 to 500 | < 30 | < 30 | < 30 | < 30 |  |  |  |  |
| COc1ccc([C@@]23CC[C@H](N4CCCC4)C[C@@H]2N(C)CC3)cc1OC [Compound 106, (3aS,6S,7aS)-3a-(3,4-dimethoxyphenyl)-1-methyl-6-(pyrrolidin-1-yl)octahydro-1H-indole] |  |  | 500 to 1000 | < 30 | < 30 | < 30 | < 30 |  |  |  |  |
| COc1ccc([C@]23CCN(C)[C@H]2[C@@H]2CC[C@H]3CC2=O)cc1OC [Compound 204] |  |  | 100 to 500 |  |  |  |  | A (A if the % inhibition is greater than or equal to 70%) | A (A if the % inhibition is greater than or equal to 70%) | A (A if the % inhibition is greater than or equal to 70%) | A (A if the % inhibition is greater than or equal to 70%) |
| COc1ccc([C@@]23CCN(C)[C@@H]2[C@@H]2C[C@H]3CC2=O)cc1OC [Compound 216] |  |  | 50 to 100 |  |  |  |  | C (C is the percent inhibition is 30-50%) | D (D if the percent inhibition is less than 30%) | D (D if the percent inhibition is less than 30%) | D (D if the percent inhibition is less than 30%) |
| COc1ccc([C@@]23CC[C@@H](N4CCCC4=O)C[C@@H]2N(C)CC3)cc1OC [Compound 110, 1-((3aS,6R,7aS)-3a-(3,4-dimethoxyphenyl)-1-methyloctahydro-1H-indol-6-yl)pyrrolidin-2-one] |  |  | < 50 | < 30 | < 30 | < 30 | < 30 |  |  |  |  |
| COc1ccc([C@@]23CCN(C)[C@@H]2[C@H]2C[C@@H]3CC2=O)cc1OC [Compound 214] |  |  | 100 to 500 |  |  |  |  | D (D if the percent inhibition is less than 30%) | A (A if the % inhibition is greater than or equal to 70%) | C (C is the percent inhibition is 30-50%) | C (C is the percent inhibition is 30-50%) |
| COc1ccc([C@]23CCN(C)[C@H]2CC2(CCCO2)CC3)cc1OC (stereo partly drawn) [Compound 117, (3a'S,7a'S)-3a′-(3,4-dimethoxyphenyl)-1′-methyldecahydro-3H-spiro[furan-2,6′-indole]] |  |  | < 50 | < 30 | 30 to 50 | 30 to 50 | 30 to 50 |  |  |  |  |
| COc1ccc([C@@]23CC[C@@H](N4CCOCC4)C[C@@H]2N(C)CC3)cc1OC [Compound 109, 4-((3aS,6R,7aS)-3a-(3,4-dimethoxyphenyl)-1-methyloctahydro-1H-indol-6-yl)morpholine] |  |  | 100 to 500 | < 30 | < 30 | < 30 | < 30 |  |  |  |  |
| COc1ccc([C@@]23CC[C@H](N4CCCCC4)C[C@@H]2N(C)CC3)cc1OC [Compound 107, (3aS,6S,7aS)-3a-(3,4-dimethoxyphenyl)-1-methyl-6-(piperidin-1-yl)octahydro-1H-indole] |  |  | > 1000 | < 30 | < 30 | < 30 | < 30 |  |  |  |  |
| COc1ccc([C@]23CCN(C)[C@H]2[C@H]2C[C@@H]3CC2=O)cc1OC [Compound 215] |  |  | 50 to 100 |  |  |  |  | D (D if the percent inhibition is less than 30%) | D (D if the percent inhibition is less than 30%) | D (D if the percent inhibition is less than 30%) | D (D if the percent inhibition is less than 30%) |
| COc1ccc([C@@]23CCN(C)[C@@H]2[C@H]2CCC[C@@H]3CC2=O)cc1OC [Compound 219] |  |  | 100 to 500 |  |  |  |  | B (B if the percent inhibition is 50-70%) | C (C is the percent inhibition is 30-50%) | C (C is the percent inhibition is 30-50%) | C (C is the percent inhibition is 30-50%) |
| COc1ccc([C@@]23CCN(C)[C@@H]2CC(=O)C[C@@H]3c2ccccc2)cc1OC [Compound 206] |  |  | > 1000 |  |  |  |  | B (B if the percent inhibition is 50-70%) | A (A if the % inhibition is greater than or equal to 70%) | A (A if the % inhibition is greater than or equal to 70%) | A (A if the % inhibition is greater than or equal to 70%) |
| COc1ccc([C@]23CC[C@H](n4ccc(C(F)(F)F)n4)C[C@H]2N(C)CC3)cc1OC [Compound 122] |  |  | > 1000 |  |  |  |  | D (D if the percent inhibition is less than 30%) | D (D if the percent inhibition is less than 30%) | D (D if the percent inhibition is less than 30%) | D (D if the percent inhibition is less than 30%) |
| COc1ccc([C@@]23CC[C@@H](n4cccn4)C[C@@H]2N(C)CC3)cc1OC [Compound 103, (3aS,6R,7aS)-3a-(3,4-dimethoxyphenyl)-1-methyl-6-(1H-pyrazol-1-yl)octahydro-1H-indole] |  |  | < 50 | < 30 | < 30 | < 30 | < 30 |  |  |  |  |
